Experimental data taken from ChEMBL document CHEMBL5380876, “Non-fused imidazole-biphenyl analogs repress triple-negative breast cancer growth by mainly stabilizing the c-MYC G-quadruplex via a multi-site binding mode” (Bioorg Med Chem, 2023).
The source made the active and inactive calls. No cut-off for these calls is given here.

Key:
Quadruplex DNA [1] = assay: Stabilization of c-Myc G4 quadruplex DNA (unknown origin) assessed as temperature at which 50% protein unfold by circular dichroism melting assay; format: nucleic-acid assay
HeLa = assay: Cytotoxicity against human HeLa cells assessed as reduction in cell viability by CCK8 assay; format: functional, cell-based
A549 = assay: Cytotoxicity against human A549 cells assessed as reduction in cell viability by CCK8 assay; format: functional, cell-based
HCC1806 = assay: Cytotoxicity against human HCC1806 cells assessed as reduction in cell viability by CCK8 assay; format: functional, cell-based
KYSE-30 = assay: Cytotoxicity against human KYSE-30 cells assessed as reduction in cell viability by CCK8 assay; format: functional, cell-based
MDA-MB-231 [2] = assay: Cytotoxicity against human MDA-MB-231 cells assessed as reduction in cell viability by CCK8 assay; format: functional, cell-based
[3] = Cytotoxicity against human MCF-10A cells assessed as reduction in cell viability by CCK8 assay; format: toxicity, cell-based
MDA-MB-231 [4] = assay: Antitumor activity against human MDA-MB-231 cells xenografted in BALB/c nude mouse assessed as reduction in tumor weight at 2 mg/kg, ip administered every other day for 20 days and measured every 4 days; format: functional, organism-based; conditions: time 20.0 day
[5] = Toxicity in BALB/c mouse xenografted with human MDA-MB-231 cells assessed as effect on body weight at 2 mg/kg, ip administered every other day for 20 days and measured every 4 days; format: organism-based; conditions: in vivo, 480 h, time 20 day
Quadruplex DNA [6] = assay: Stabilization of c-Myc G4 quadruplex DNA (unknown origin) assessed as temperature at 50% protein unfold by circular dichroism melting assay; format: nucleic-acid assay

Row | SMILES | T (Quadruplex DNA [1]) | IC50 (HeLa) | IC50 (A549) | IC50 (HCC1806) | IC50 (KYSE-30) | IC50 (MDA-MB-231 [2]) | IC50 [3] | Activity (MDA-MB-231 [4]) | Activity [5] | T (Quadruplex DNA [6])
1 | CN1CCN(c2ccc(-c3nc(-c4ccc(-c5ccccn5)cc4)[nH]c3-c3ccc(N4CCN(C)CC4)cc3)cc2)CC1 | 34.4 °C | 12.3 µM | 1.94 µM | 7.09 µM | 2.79 µM | 2.19 µM | 7.75 µM | – | – | –
2 | CN1CCN(c2ccc(-c3nc(-c4ccc(-c5ccccc5C(F)(F)F)cc4)[nH]c3-c3ccc(N4CCN(C)CC4)cc3)cc2)CC1 | 29.6 °C | 3.55 µM | 1.7 µM | 1.9 µM | 2.21 µM | 2.43 µM | > 20 µM | – | – | –
3 | COc1ccc(-c2ccc(-c3nc(-c4ccc(N5CCN(C)CC5)cc4)c(-c4ccc(N5CCN(C)CC5)cc4)[nH]3)cc2)cc1 | 36.2 °C | 5.49 µM | 2.42 µM | 3.74 µM | 2.5 µM | 2.69 µM | 9.69 µM | – | – | –
4 | COc1ccccc1-c1ccc(-c2nc(-c3ccc(N4CCN(C)CC4)cc3)c(-c3ccc(N4CCN(C)CC4)cc3)[nH]2)cc1 | 23.5 °C | > 20 µM | 7.51 µM | > 20 µM | 8.64 µM | 8.19 µM | > 20 µM | – | – | –
5 | COc1cccc2c1C(=O)c1c(O)c3c(c(O)c1C2=O)C[C@@](O)(C(=O)CO)C[C@@H]3O[C@H]1C[C@H](N)[C@H](O)[C@H](C)O1 [DOXORUBICIN] | – | – | – | – | – | – | – | Active | Toxic | –
6 | CN1CCN(c2ccc(-c3nc(-c4ccc(C(F)(F)F)cc4)[nH]c3-c3ccc(N4CCN(C)CC4)cc3)cc2)CC1 | – | – | – | – | – | – | – | – | – | 28.4 °C
7 | CN1CCN(c2ccc(-c3nc(-c4ccc(-c5ccccc5)cc4)[nH]c3-c3ccc(N4CCN(C)CC4)cc3)cc2)CC1 | 36.8 °C | 8.92 µM | 2.51 µM | 5.68 µM | 3.86 µM | 3.69 µM | 9.23 µM | – | – | –
